Measured values: patent publication US10781262B2, “Combination therapy of T cell activating bispecific antigen binding molecules and PD-1 axis binding antagonists” (Hoffmann-La Roche Inc., priority 2014, dated 2020)

Assays:
[1] = system: T cells in FolR1^+ tumor digests or malignant effusions; test: FolR1-TCB with PD-1 blockade in tumor digests or malignant effusions; type: cell-based, human; details: combination with FolR1-TCB
Experimental: FIG. 38A-D: FolR1^+ tumor digests or malignant effusions were cultured for 24 h with FolR1-TCB in the presence or absence of a PD-1 blocking antibody. […] The increase in cytokine secretion upon combined FolR1-TCB and anti-PD-1 treatment compared with FolR1-TCB alone was determined in PD-1^hi scarce and abundant tumors. FIG. 38E: Tumor digests or malignant effusions were co-cultured with exogenously added fluorescently labeled Skov3 cells at an E:T ratio of 1:1 for 24 h in the presence or absence of a PD-1 blocking antibody and FolR1-TCB. The increase in specific killing by the anti-PD-1 antibody was compared in PD-1^hi scarce and abundant tumors. p-values were calculated using the unpaired Mann-Whitney test.
As the level of PD-1 expression on TILs correlates with the efficacy of FolR1-TCB, we analyzed whether blockade of the PD-1/PD-L1 axis in combination with FolR1-TCB treatment might be able to restore T-cell function.

T cells in tumor digests = test: Polyclonal stimulation with anti-CD3/CD28 antibodies and PD-1 blockade; type: cell-based, human; details: 10 μg/ml, 24 hrs
[2] = system: CFSE-labelled Skov3 cells; test: Killing assay with tumor samples; type: cell-based, human
Experimental: To determine the FolR1-TCB induced tumor cell killing, 3×10^4 CFSE-labelled Skov3 cells were cocultured with tumor samples in the presence or absence of FolR1-TCB at a concentration of 2 nM for 24h in 96-well flat bottom cell culture plates. The E:T ratio (E: effector CD45^+CD3^+ cells; T: target FolR1^+ cells from tumor and added Skov3 cells) was adjusted to 1:1 in each well and the cell number of the added tumor samples was calculated for each sample according to prior characterization by flow cytometry. Cell death of Skov3 cells was determined by flow cytometry by measuring activated caspase 3 and the live/dead marker Live/Dead-near-IR. The assay was performed in triplicates. The FolR1-TCB mediated killing was calculated according to the following equation: % of specific killing=100−[(% of Skov3 live cells in FolR1-TCB treated sample/% of Skov3 live cells in untreated sample)×100].
To compare the FolR1-TCB-induced killing capacity of T-cells between tumor samples, and to exclude additional factors suppressing T-cell functionality, such as expression of PD-L1 on the tumor cells, we exogenously added CFSE-labeled FolR1^+ Skov3 cells to the tumor digests and adjusted the E:T ratio to 1:1, essentially as described above. We then measured the FolR1-TCB-induced killing of CFSE-labeled Skov3 cells, which allowed us to also include FolR1^− tumor samples into the analysis. […]

[3] = system: T cells in FolR1 positive tumor digests or malignant effusions; test: Ex vivo treatment of tumor samples with FolR1-TCB (T cell activation); type: cell-based, human
Experimental: FolR1 positive tumor digests or malignant effusions were thawed, washed and plated in 96-well flat bottom cell culture plates (BD Falcon) with a density of 3×10^5 cells/200 μl/well in complete medium (DMEM+Sodium Pyruvate (1 mM)+MEM non essential AA (1×)+L-Glutamin (2 mM)+Penicillin/Streptomycin ([…])+2-Mercaptoethanol ([…])+Ciproxin (1 mg/ml)+10% human Serum). The samples were cultured in the presence or absence of FolR1-TCB or DP47 TCB at a concentration of 2 nM for 24h. Activation of CD8+ and CD4^+ T cells (CD45^+CD3+) upon FolR1-TCB treatment was determined by multicolor flow cytometry by measuring the expression of the cell surface markers CD25, CD69, CD137, ICOS, PD-1 and Tim-3. Furthermore the expression of granzyme B and IFN-γ was determined by intracellular staining.
To determine FolR1-TCB induced T cell activation, tumor samples were cultured in the presence or absence of FolR1-TCB or the control TCB DP-47. Then, T cells were characterized by multicolor flow cytometry for expression of activation markers and T cell effector functions, as described above. […] FolR1-TCB-induced perforin secretion was highly variable in TILs, and severely impaired in a subset of patients (FIG. 12N).

[4] = system: CD8^+ T-cells with FolR1^+ ovarian cancer cell line Skov3; test: PBMCs from healthy donors co-cultured with Skov3 cells, FolR1-TCB; type: cell-based, human; details: 0.6 pM to 2 nM for 24 h
Experimental: FIGS. 40A-C show activation of CD8^+ T-cells upon exposure to increasing concentrations of FolR1-TCB. PBMCs were co-cultured with Skov3 cells for 24 h in the presence or absence of FolR1-TCB or the unspecific control DP-47-TCB. […] Shaded histogram: isotype control; open histogram: anti-FolR1-antibody. FIG. 40B: The expression of the activation markers CD25, CD137, and ICOS on CD8^+ T-cells was determined by flow cytometry.
To assess the effect of FolR1-TCB on T-cell activation peripheral blood mononuclear cells (PBMCs) from healthy donors were co-cultured with the FolR1^+ ovarian cancer cell line Skov3 (FIG. 40A). […] In addition, T-cells secreted IL-2, IFN-γ, and TNF.

[5] = system: CD4 and CD8 T cells with SKOV3 cells; test: T cell activation upon killing (CD25, CD69, flow cytometry); type: cell-based, human; details: SKOV3 and HT-29 cells
Experimental: (§1) FIGS. 7A-L depict graphs summarizing T cell mediated killing of HT-29 and SKOV3 cells. FolR1 TCBs were used to test T cell mediated killing of HT-29 and SKOV3 tumor cells and upregulation of activation marker on T cells upon killing. […] DP47 TCB was included as negative control. After 48 h incubation upregulation of the activation marker CD25 and CD69 on CD8 T cells and CD4 T cells upon killing of SKOV3 (FIGS. 7E-H) or HT-29 (FIG. 7I-L) tumor cells was assessed by flow cytometry.
(§2) Overall killing of SKOV3 cells was higher compared to HT-29 which reflects the higher expression levels of FolR1 on SKOV3 cells (FIGS. 7A-D). In line with this, a strong upregulation of the activation marker CD25 and CD69 on CD4^+ T cells and CD8^+ T cells was detected. Activation of T cells was very similar in the presence of SKOV3 cells and HT-29 cells.

SKOV3 cells = test: T cell mediated killing (LDH release); type: cell-based, human; details: SKOV3 and HT-29 cells
Experimental: as §1, §2

[6] = system: FolR1 expressing tumor cells and FolR1 negative cell line MKN-45; test: Flow cytometry binding to tumor cells with different FolR1 expression levels; design: species or system human
Excerpt: FIGS. 6A-E depict graphs summarizing binding of FolR1 IgGs to cells with different FolR1 expression levels. […] DP47 IgG was included as isotype control and MKN-45 were included as FolR1 negative cell line.
The used panel of tumor cells contains FolR1 high, intermediate and low expressing tumor cells and a FolR1 negative cell line.
The amount of bound construct is proportional to the FolR1 expression level and there is still good binding of the constructs to the FolR1 low cell line HT-29 detectable. […] DP47 TCB is an untargeted TCB and was prepared as described in WO2014/131712.

[7] = system: T cells in EpCAM positive tumor digests or malignant effusions; test: Ex vivo treatment of tumor samples with catumaxomab; type: cell-based, human; details: 10 ng/ml, 24h; 4 NSCLC tumor digests
Experimental: The trifunctional TCB catumaxomab (Removab®) was obtained from Fresenius. The experimental conditions were similar as indicated above for FolR1-TCB. Briefly, EpCAM positive tumor digests or malignant effusions were cultured in the presence or absence of catumaxomab at a concentration of 10 ng/ml for 24h. Analysis of CD8÷ and CD4^+ positive T cells (CD45^+CD3+) was performed as described above.
To determine to which extent catumaxomab induces T cell activation and to confirm the findings described above using a second, independent T cell bispecific molecule, 4 tumor digests from patients with NSCLC were exposed to catumaxomab, a trifunctional bispecific antibody recognizing CD3 on T cells and EpCAM on tumor cells. Then, T cells were characterized by flow cytometry for expression of activation markers and T cell effector functions (FIG. 17A-D). […] Accordingly, the baseline expression of inhibitory receptors differed between the patients (FIG. 17E-H).

## nivolumab: PD-1 blocking antibody
[1]; 24 h
  secretion of IFN-γ, TNF, IL-2 and perforin upon combined treatment with FolR1-TCB (in words): could be increased only in some of the PD-1^hi scarce tumors
[1]; Skov3 cells E:T 1:1
  cytotoxic tumor cell killing upon additional PD-1 blockade (in words): could neither be improved
T cells in tumor digests
  restoration of T cell effector function by PD-1 blockade (in words): could restore T cell effector function such as production and secretion of IL-2, IFN-γ and TNF-α only in some patients

## DP47 TCB: untargeted TCB, negative control, prepared as described in WO2014/131712
[2]
  tumor cell killing (in words): did not induce any tumor cell killing
[3]
  T cell activation in tumor samples (in words): did not induce any T cell activation
[4]
  activation of CD8^+ T-cells (in words): did not induce any T-cell activation
[5]
  upregulation of CD25 and CD69 on T cells (in words): no significant upregulation of CD25 and CD69 on T cells
SKOV3 cells
  T cell mediated killing (in words): does not induce any killing
[6]
  binding to panel of tumor cell lines: no binding

## catumaxomab
[7]
  catumaxomab induced T cell activation (in words): striking heterogeneity in catumaxomab induced T cell activation
